Experimental data published in ChEMBL document CHEMBL3399921, “Novel 2-(2-phenalkyl)-1H-benzo[d]imidazoles as antitubercular agents. Synthesis, biological evaluation and structure-activity relationship” (Bioorg Med Chem, 2015).
In brackets after ≈: the same amount, converted by molar mass.

System: Mycobacterium tuberculosis variant bovis
Assay: Tuberculostatic activity against Mycobacterium bovis by two-fold classical test-tube method
Assay type: functional

Compound Nc1c(NC(=O)CCc2cc(Cl)cc(Cl)c2)cc(Cl)cc1[N+](=O)[O-] has an MIC of 65 µM (≈ 25.3 µg/mL).
Cc1cc2nc(CCc3cc(Cl)cc(Cl)c3)[nH]c2cc1C gave an MIC of 19 µM (≈ 6.07 µg/mL).
Cc1cc2nc(CCc3ccccc3)[nH]c2cc1C gave an MIC of 6.3 µM (≈ 1.58 µg/mL).
